# From patent publication US4105768A, “Hypotensive substituted 1,2,4-triazoles” (priority 1973, dated 1978)
# Like-named read-outs stand apart in the source and are kept apart here.
# Tests used:
# [1] = system: spontaneously hypertensive rats of the SHR/N strain; assay: Antihypertensive effect in spontaneously hypertensive rats, oral; type: in vivo; details: Rattus norvegicus, 3 h; three consecutive daily oral doses; measured before and three hours after administration; unanesthetized SHR/N rats; read-out: effective antihypertensive dose, defined as the dose which reduced the mean arterial blood pressure more than 30 mm Hg
# Procedure: The antihypertensive effects of the hydrochloride salt of the compound of the invention with the designation FLA 486 having the formula [drawing 25] have been compared with those of FLA 136 with the formula [drawing 26] in spontaneously hypertensive rats of the SHR/N strain (Mollegaard Hansens Avlslaboratorier A/S, Denmark). The animals were prepared for measurements of the arterial blood pressure through a catheter implanted into the abdominal aorta and exteriorized at the base of the neck. Groups of two rats were given three consecutive daily oral doses of the test compounds. Measurements were performed before and three hours after administration to the unanesthetized animal. The effective antihypertensive dose of FLA 486, defined as the dose which reduced the mean arterial blood pressure more than 30 mm Hg was 5-10 mg/kg. The corresponding value for FLA 136 was 5-10 mg/kg.
# anaesthetized rats = type: in vivo, rat
# mice = assay: Effect on the spontaneous motor activity of mice; type: in vivo, mouse; details: i.p., mice; compared to Wy-8678
# Procedure: (§1) The effect on the spontaneous motor activity was tested in mice. Groups of six animals were given the test compounds intraperitoneally one and three hours before test. The animals were placed individually in an activity meter and the activity was recorded for ten minutes. The dose which reduced the spontaneous motor activity to 50 percent of that of control mice was calculated.
# [2] = Effect on the spontaneous motor activity of mice; type: in vivo, mouse; details: mouse, in vivo, ip, read-out: Intraperitoneal dose which reduced the spontaneous motor activity of mice to 50 % of control values; for ED50 at 1 h: measurements one hour after administration; for ED50 at 3 h: measurements three hours after administration
# Procedure: as §1
# [3] = Acute toxicity in mice (LD50 i.p.); details: mouse, in vivo, ip
# renal hypertensive rats = assay: Antihypertensive effect (mean arterial blood pressure) in unanaesthetized renal hypertensive rats, oral; type: in vivo, rat; details: for Minimum daily oral dose with antihypertensive effects defined as the dose which reduced the mean arterial blood pressure more than 15 mm Hg in unanaesthetized renal hypertensive rats: three consecutive daily oral doses, measured before and three hours after administration
# Procedure: The antihypertensive effects were tested in rats in which high blood pressure had been produced by removal of one kidney and restricting the blood flow to the remaining one two months before the experiments. The animals were prepared for measurements of the arterial blood pressure through a catheter implanted into the abdonimal aorta and exteriorized at the base of the neck. Groups of two rats were given three consecutive daily oral doses of the test compounds from the scale: 2.5, 5, 10, 20, and 40 mg/kg. Measurements were performed before and three hours after administration to the unanaesthetized animal. The minimum daily oral dose with antihypertensive effect was defined as the dose which reduced the mean arterial blood pressure more than 15 mm Hg.
SMILES,minimal effective dose [1] [mg/kg],"initial rise in blood pressure (anaesthetized rats; rat, in vivo, iv, 40 mg/kg)",sedative effects (in words) (mice),ED50 at 1 h [2] [mg/kg],ED50 at 3 h [2] [mg/kg],LD50 [3] [mg/kg],"antihypertensive effect (in words) (renal hypertensive rats; oral, compared with Wy-8678)",Minimum daily oral dose with antihypertensive effects defined as the dose which reduced the mean arterial blood pressure more than 15 mm Hg in unanaesthetized renal hypertensive rats (renal hypertensive rats) [mg/kg],"initial rise in blood pressure (anaesthetized rats; intravenous, consecutive increasing doses, anaesthetized rats, highest dose tested of test compound 40 mg/kg)"
CNn1cnnc1NN=Cc1c(Cl)cccc1Cl [FLA 486],5 to 10,,,,,,,,
"Cl.Nn1cnnc1NN=Cc1c(Cl)cccc1Cl [FLA 136, 4-Amino-3-(2,6-dichlorobenzylidenehydrazino)-1,2,4-triazole hydrochloride]",5 to 10,did not produce an initial rise in blood pressure even at 40 mg/kg,lack of sedative effects,90,170,340,of the same degree as that of one of the present known most active hypotensive compounds,2.5 to 5,
"NC(N)=NN=Cc1c(Cl)cccc1Cl [Wy-8678, reference compound]",,,,3,3,70,,2.5,produced a large increase in arterial pressure even at doses as low as 0.01 mg/kg
